In patent US8957074B2 (Novartis AG, priority 2010, dated 2015):
Like-named read-outs stand apart in the source and are kept apart here.

What was measured:
CDK4/cyclin D1 = CDK4/cyclin D1 (Homo sapiens (Human), UniProt P11802); experiment: CDK4/cyclin D1 enzymatic activity assay (TR-FRET, phosphorylation of pRb at Ser780); assay type: biochemical
Method in brief: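 Phosphorylation at pRb Ser780, detected by TR-FRET, gave IC50s and kinetics. Enzyme: baculovirus/Sf21-expressed human CDK4/cyclin D1. ATP at 3 μM initiated the reaction; EDTA (pH 8.0) stopped it after 60 min at 22° C.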

[1] = test system: phosphorylation of pRb at the Ser780 site in JeKo-1 mantle cell lymphoma cells; experiment: CDK4 cellular assay: ELISA of pRb phosphorylation at Ser780 in JeKo-1 cells; assay type: cell-based; details: Homo sapiens
CDK1/cyclin B = CDK1/cyclin B (Homo sapiens (Human), UniProt P06493); experiment: CDK1/cyclin B enzymatic activity assay (IMAP-FP); assay type: biochemical
Description: CDK1/Cyclin B Enzymatic Activity Assay
A 384-well microtiter IMAP-FP™ (Molecular Devices Trade Mark Technology) endpoint assay was used for CDK1/cyclin B kinase activity measurements. The same assay was used for IC50 determination of small molecule inhibitors.

[2] = 0.3 nM CDK4/cyclin D1, 150 nM biotin-pRb (773-924), 3 μM ATP, 60 min at 22° C., read-out: Biochemical CDK4 enzyme IC50
[3] = JeKo-1, JeKo-1 cells, p-pRb % inhibition adjusted with total pRb levels, read-out: Normalized cellular ppRb inhibition IC50
[4] = JeKo-1, JeKo-1 cells, p-pRb Ser780 ELISA, non-normalized, read-out: Cellular ppRb inhibition IC50
[5] = 0.25 nM CDK1/cyclin B, 100 nM Tamra Histone-H1 peptide, 20 μM ATP, 120 min at room temperature, read-out: Biochemical CDK1 enzyme IC50
[6] = JeKo-1 cells, p-pRb % inhibition adjusted with total pRb levels, read-out: Normalized cellular ppRb inhibition IC50
[7] = JeKo-1 cells, p-pRb Ser780 ELISA, non-normalized, read-out: Cellular ppRb inhibition IC50
[8] = […] CDK1/cyclin B, 100 nM Tamra Histone-H1 peptide, 20 μM ATP, 120 min at room temperature, read-out: Biochemical CDK1 enzyme IC50

Chain of CDK4/cyclin D1 (P11802 whole entry): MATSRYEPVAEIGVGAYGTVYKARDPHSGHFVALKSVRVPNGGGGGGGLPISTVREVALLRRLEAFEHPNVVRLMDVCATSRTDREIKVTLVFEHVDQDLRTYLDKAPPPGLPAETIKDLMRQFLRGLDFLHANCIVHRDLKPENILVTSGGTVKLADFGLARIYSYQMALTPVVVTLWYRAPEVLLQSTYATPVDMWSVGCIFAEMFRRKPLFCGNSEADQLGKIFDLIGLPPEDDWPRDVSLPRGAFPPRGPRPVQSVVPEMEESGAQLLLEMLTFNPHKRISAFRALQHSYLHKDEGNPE
Chain of CDK4/cyclin D1 (P24385 whole entry partner): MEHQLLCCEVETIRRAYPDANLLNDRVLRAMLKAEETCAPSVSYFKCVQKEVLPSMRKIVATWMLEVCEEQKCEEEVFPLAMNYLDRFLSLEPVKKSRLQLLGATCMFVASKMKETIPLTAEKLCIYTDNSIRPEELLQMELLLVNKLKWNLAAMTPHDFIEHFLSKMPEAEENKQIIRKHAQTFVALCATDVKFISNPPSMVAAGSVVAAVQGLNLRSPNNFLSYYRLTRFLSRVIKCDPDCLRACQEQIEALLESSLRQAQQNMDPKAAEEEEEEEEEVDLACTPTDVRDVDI
Chain of CDK1/cyclin B (P06493 whole entry, species assumed): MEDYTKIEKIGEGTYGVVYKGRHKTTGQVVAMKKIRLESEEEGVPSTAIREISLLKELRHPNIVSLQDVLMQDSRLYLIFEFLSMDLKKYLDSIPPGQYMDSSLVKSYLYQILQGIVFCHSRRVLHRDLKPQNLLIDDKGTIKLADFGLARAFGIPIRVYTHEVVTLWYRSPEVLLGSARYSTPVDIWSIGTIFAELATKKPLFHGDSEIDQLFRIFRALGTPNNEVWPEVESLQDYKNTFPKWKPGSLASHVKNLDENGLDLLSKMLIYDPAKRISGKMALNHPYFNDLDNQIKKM
Chain of CDK1/cyclin B (P14635 whole entry partner, species assumed): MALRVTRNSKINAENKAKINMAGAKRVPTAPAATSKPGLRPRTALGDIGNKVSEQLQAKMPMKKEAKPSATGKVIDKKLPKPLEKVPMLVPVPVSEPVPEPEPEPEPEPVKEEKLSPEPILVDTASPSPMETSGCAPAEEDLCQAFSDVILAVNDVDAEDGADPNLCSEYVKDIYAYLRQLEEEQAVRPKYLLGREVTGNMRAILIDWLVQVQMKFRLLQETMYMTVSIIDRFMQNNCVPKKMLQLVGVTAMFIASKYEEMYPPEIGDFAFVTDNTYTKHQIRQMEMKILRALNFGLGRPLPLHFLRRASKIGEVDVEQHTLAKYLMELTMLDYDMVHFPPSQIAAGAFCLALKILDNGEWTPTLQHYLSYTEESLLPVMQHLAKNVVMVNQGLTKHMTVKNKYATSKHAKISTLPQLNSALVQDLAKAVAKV

Row | SMILES | IC50 (CDK4/cyclin D1; [2]) | IC50 [1, 3] | IC50 [1, 4] | IC50 (CDK1/cyclin B) | IC50 (CDK1/cyclin B; [5]) | IC50 [1, 6] | IC50 [1, 7] | IC50 (CDK1/cyclin B; [8]) | IC50 ([1]; JeKo-1, read-out: Cellular ppRb inhibition IC50) | IC50 (CDK4/cyclin D1)
1 | CN(C)C(=O)c1cc2cnc(Nc3ccc(C(=O)N4CC5CC[C@@H](C4)N5)cn3)nc2n1[C@H]1C[C@@H]2CC[C@H]1C2 [Example 77, 7-(1S,2S,4R)-Bicyclo[2.2.1]hept-2-yl-2-[5-(3,8-diaza-bicyclo[3.2.1]octane-3-carbonyl)-pyridin-2-ylamino]-7H-pyrrolo[2,3-d]pyrimidine-6-carboxylic acid dimethylamide] | 27 nM | 225 nM | 172 nM | > 15000 nM | – | – | – | – | – | –
2 | CN(C)C(=O)c1cc2cnc(Nc3ccc(C(=O)N4CC5CCC(C4)O5)cn3)nc2n1C1CCCC1 [Example 74, 7-Cyclopentyl-2-[5-(8-oxa-3-aza-bicyclo[3.2.1]octane-3-carbonyl)-pyridin-2-ylamino]-7H-pyrrolo[2,3-d]pyrimidine-6-carboxylic acid dimethylamide] | 67 nM | 257 nM | 151 nM | – | > 15000 nM | – | – | – | – | –
3 | CN(C)C(=O)c1cc2cnc(Nc3ccc(C(=O)N4CC5CCC(C4)C5N(C)C)cn3)nc2n1C1CCCC1 (stereo not shown) [Example 34, 7-cyclopentyl-2-(5-(8-(dimethylamino)-3-azabicyclo[3.2.1]octane-3-carbonyl)pyridin-2-ylamino)-N,N-dimethyl-7H-pyrrolo[2,3-d]pyrimidine-6-carboxamide] | 22 nM | – | – | – | – | 140 nM | 75 nM | > 15000 nM | – | –
4 | CN(C)C(=O)c1cc2cnc(Nc3ccc(N4CCN5CCCC5C4=O)cn3)nc2n1C1CCCC1 (stereo not shown) [Example 115] | 20 to 51 nM | 369 to 407 nM | 135 to 306 nM | – | > 15000 nM | – | – | – | – | –
5 | CN(C)C(=O)c1cc2cnc(Nc3ccc(C(=O)N4CC5CCC(C4)N5)cn3)nc2n1C1CCCCCC1 [Example 4, 2-(5-(3,8-diazabicyclo[3.2.1]octane-3-carbonyl)pyridin-2-ylamino)-7-cycloheptyl-N,N-dimethyl-7H-pyrrolo[2,3-d]pyrimidine-6-carboxamide] | 4 nM | 10 nM | 9 nM | – | – | – | – | 7060 nM | – | –
6 | CN(C)C(=O)c1cc2cnc(Nc3ccc(C(=O)N4CCN5CCCC5C4)cn3)nc2n1C1CCCC1 (stereo not shown) [Example 20, 7-Cyclopentyl-2-[5-(hexahydro-pyrrolo[1,2-a]pyrazine-2-carbonyl)-pyridin-2-ylamino]-7H-pyrrolo[2,3-d]pyrimidine-6-carboxylic acid dimethylamide] | 64 nM | 452 nM | 267 nM | – | – | – | – | > 15000 nM | – | –
7 | CN(C)C(=O)c1cc2cnc(Nc3ccc(N4CC5CC5(N)C4)cn3)nc2n1C1CCCC1 (stereo not shown) [Example 78, 2-[5-(1-Amino-3-aza-bicyclo[3.1.0]hex-3-yl)-pyridin-2-ylamino]-7-cyclopentyl-7H-pyrrolo[2,3-d]pyrimidine-6-carboxylic acid dimethylamide] | 76 nM | – | – | – | > 15000 nM | – | – | – | 59 nM | –
8 | CN(C)C(=O)c1cc2cnc(Nc3ccc(N4CC5CCC(CC4=O)N5)nn3)nc2n1C1CCCC1 (stereo not shown) [Example 79, 7-Cyclopentyl-2-[6-(4-oxo-3,9-diaza-bicyclo[4.2.1]non-3-yl)pyridazin-3-ylamino]-7H-pyrrolo[2,3-d]pyrimidine-6-carboxylic acid dimethylamide] | – | 117 nM | 30 nM | – | > 15000 nM | – | – | – | – | 42 nM
9 | CN(C)C(=O)c1cc2cnc(Nc3ccc(N4CC5(CC4=O)CC4CCC(C5)N4)cn3)nc2n1C1CCCOC1 (stereo not shown) [Example 120, N,N-dimethyl-2-(5-(5′-oxo-8-azaspiro[bicyclo[3.2.1]octane-3,3′-pyrrolidine]-1′-yl)pyridin-2-ylamino)-7-(tetrahydro-2H-pyran-3-yl)-7H-pyrrolo[2,3-d]pyrimidine-6-carboxamide] | 66 nM | – | – | – | – | 1030 nM | 677 nM | > 15000 nM | – | –
10 | CN(C)C(=O)c1cc2cnc(Nc3ccc(N4CC5CC4CN5)cn3)nc2n1C1CCCC1 (stereo not shown) [Example 111, 7-Cyclopentyl-2-[5-(2,5-diaza-bicyclo[2.2.1]hept-2-yl)-pyridin-2-ylamino]-7H-pyrrolo[2,3-d]pyrimidine-6-carboxylic acid dimethylamide] | 41 nM | – | – | – | – | 452 nM | 371 nM | 9170 nM | – | –
11 | CN(C)C(=O)c1cc2cnc(Nc3ccc(N4C[C@@H]5CC[C@H](CC4=O)N5S(C)(=O)=O)cn3)nc2n1C1CCCC1 [Example 137, 7-cyclopentyl-N,N-dimethyl-2-(5-((1S,6R)-9-(methylsulfonyl)-4-oxo-3,9-diazabicyclo[4.2.1]nonan-3-yl)pyridin-2-ylamino)-7H-pyrrolo[2,3-d]pyrimidine-6-carboxamide] | 62 nM | – | – | – | – | 150 nM | 155 nM | > 15000 nM | – | –
12 | CN(C)C(=O)c1cc2cnc(Nc3ccc(N4CC5(CC6CCC(C5)N6C)OC4=O)cn3)nc2n1C1CCCC1 [Example 102, 7-cyclopentyl-N,N-dimethyl-2-(5-((1R,3r,5S)-8-methyl-2′-oxo-8-azaspiro[bicyclo[3.2.1]octane-3,5′-oxazolidine]-3′-yl)pyridin-2-ylamino)-7H-pyrrolo[2,3-d]pyrimidine-6-carboxamide] | 18 nM | 71 nM | 39 nM | – | – | – | – | > 15000 nM | – | –
13 | CN(C)C(=O)c1cc2cnc(Nc3ccc(N4CC5CCC(CC4=O)N5)cn3)nc2n1C1CCC1 (stereo not shown) [Example 134, 7-Cyclobutyl-2-[5-(4-oxo-3,9-diaza-bicyclo[4.2.1]non-3-yl)-pyridin-2-ylamino]-7H-pyrrolo[2,3-d]pyrimidine-6-carboxylic acid dimethylamide] | 8 nM | 123 nM | 66 nM | – | – | – | – | > 15000 nM | – | –
14 | CN(C)C(=O)c1cc2cnc(Nc3ccc(C(=O)N4CC5CN(Cc6ccccc6)CC(C4)O5)cn3)nc2n1C1CCCC1 [Example 46, 2-[5-(7-Benzyl-9-oxa-3,7-diaza-bicyclo[3.3.1]nonane-3-carbonyl)-pyridin-2-ylamino]-7-cyclopentyl-7H-pyrrolo[2,3-d]pyrimidine-6-carboxylic acid dimethylamide] | 100 nM | 730 nM | 724 nM | – | – | – | – | > 15000 nM | – | –
15 | [2H]C([2H])([2H])N1C2CCC1CN(C(=O)c1ccc(Nc3ncc4cc(C(=O)N(C)C)n(C5CCCC5)c4n3)nc1)C2 [Example 63, 7-Cyclopentyl-2-[5-(8-methyl-d3-3,8-diaza-bicyclo[3.2.1]octane-3-carbonyl)-pyridin-2-ylamino]-7H-pyrrolo[2,3-d]pyrimidine-6-carboxylic acid dimethylamide] | 11 to 24 nM | 40 to 242 nM | 34 to 78 nM | > 15000 nM | – | – | – | – | – | –
16 | CN(C)C(=O)c1cc2cnc(Nc3ccc(C(=O)N4CC5CC4CN5)cn3)nc2n1C1CCCCC1 (stereo not shown) [Example 67, 7-Cyclohexyl-2-[5-(2,5-diaza-bicyclo[2.2.1]heptane-2-carbonyl)-pyridin-2-ylamino]-7H-pyrrolo[2,3-d]pyrimidine-6-carboxylic acid dimethylamide] | 3 nM | – | – | – | – | 54 nM | 51 nM | 10400 nM | – | –
17 | CN(C)C(=O)c1cc2cnc(Nc3ccc(N4CC5CCC(C4)N5)cn3)nc2n1C1CCCC1 [Example 112, 7-Cyclopentyl-2-[5-(3,8-diaza-bicyclo[3.2.1]oct-3-yl)pyridin-2-ylamino]-7H-pyrrolo[2,3-d]pyrimidine-6-carboxylic acid dimethylamide] | 11 to 34 nM | – | – | – | – | 231 nM | 92 nM | > 15000 nM | – | –
